Reference: paper PMC8301156, “Phenolic Extracts from Extra Virgin Olive Oils Inhibit Dipeptidyl Peptidase IV Activity: In Vitro, Cellular, and In Silico Molecular Modeling Investigations” (Antioxidants, 2021)

Molecular target: T1, purified human recombinant DPP-IV enzyme (Homo sapiens, UniProt P27487)
T1 construct: purchased Cayman Chemicals
Test: In vitro DPP-IV activity assay (Gly-Pro-AMC fluorescence)
Assay type: biochemical
Conditions: tested 1–1000 µM
Description: The DPP-IV enzyme was provided by Cayman Chemicals (Ann Arbor, MI, USA), while the DPP-IV substrate (Gly-Pro-amido-4-methylcoumarin hydrobromide (Gly-Pro-AMC)) was from AnaSpec Inc. (Freemont, CA, USA). The experiments were carried out in triplicate in a half-volume 96-well solid plate (white) following conditions previously optimized. More details are available in the Supplementary Material.
To evaluate the DPP-IV inhibitory activity of both BUO and OMN, in vitro experiments were performed by using the purified human recombinant DPP-IV enzyme and H-Gly-Pro-AMC as a substrate. The reaction was monitored by measuring the fluorescence signals at 465 nm after excitation at 350 nm, deriving from the release of a free AMC group after the cleavage of H-Gly-Pro-AMC catalyzed by DPP-IV. […]
Tris-HCl, ethylendiaminetetraacetic acid (EDTA) and NaCl were from Sigma-Aldrich (St. Louis, MO, USA) The DPP-IV assay kit was from (Cayman Chemicals (Michigan, USA), while Gly- Pro-amido-4-methylcoumarin hydrobromide (Gly- Pro-AMC) was from AnaSpec (Freemont, CA, USA). […]
MA, USA). Tyrosol (≥98%), hydroxytyrosol (≥98%), and oleocanthal (≥95%) were from Merck Life Science S.r.l. (Milano, Italy); oleuropein (≥98%) was from Extrasynthese (Genay, France), whereas oleacin was from Phytolab
(Vestenbergsgreuth, Germany).
2.3. In Vitro DPP-IV Activity Assay
The DPP-IV enzyme was provided by Cayman Chemicals (Michigan, USA), while the DPP-IV substrate (H-Gly-Pro-AMC) was from AnaSpec Inc.
(Freemont, CA, USA). The experiments were carried out in triplicate in a half volume 96-well solid plate (white). […]
Subsequently, the samples were mixed and 50 μL of each reaction was transferred in each plate well. […] Fluorescence signals deriving from the release of free AMC were measured using a Synergy H1 fluorescence plate reader from BioTek (excitation/emission wavelength

T1 sequence (P27487 whole entry): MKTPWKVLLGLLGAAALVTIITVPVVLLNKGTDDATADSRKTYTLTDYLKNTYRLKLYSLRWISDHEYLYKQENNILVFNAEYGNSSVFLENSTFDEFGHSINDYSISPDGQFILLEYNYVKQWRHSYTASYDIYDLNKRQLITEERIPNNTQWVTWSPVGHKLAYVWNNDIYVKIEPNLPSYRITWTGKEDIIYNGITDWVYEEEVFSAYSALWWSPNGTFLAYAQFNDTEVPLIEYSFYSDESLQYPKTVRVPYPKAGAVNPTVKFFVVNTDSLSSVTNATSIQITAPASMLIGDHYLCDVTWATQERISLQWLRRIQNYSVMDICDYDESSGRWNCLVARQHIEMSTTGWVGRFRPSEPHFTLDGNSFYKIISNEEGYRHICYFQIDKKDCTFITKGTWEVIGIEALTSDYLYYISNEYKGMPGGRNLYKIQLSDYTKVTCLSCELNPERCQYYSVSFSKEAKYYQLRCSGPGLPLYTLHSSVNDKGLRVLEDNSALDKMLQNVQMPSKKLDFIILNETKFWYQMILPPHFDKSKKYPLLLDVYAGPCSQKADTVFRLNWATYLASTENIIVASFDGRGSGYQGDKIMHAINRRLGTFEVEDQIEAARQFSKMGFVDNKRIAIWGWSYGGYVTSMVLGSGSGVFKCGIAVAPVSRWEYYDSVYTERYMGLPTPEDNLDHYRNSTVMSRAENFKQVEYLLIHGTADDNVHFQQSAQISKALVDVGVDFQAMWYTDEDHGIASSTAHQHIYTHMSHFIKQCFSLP

Structure (SMILES)	IC50
OCCc1ccc(O)c(O)c1 [hydroxytyrosol]	742 ± 35.7 µM
C/C=C1/[C@H](O[C@@H]2O[C@H](CO)[C@@H](O)[C@H](O)[C@H]2O)OC=C(C(=O)OC)[C@H]1CC(=O)OCCc1ccc(O)c(O)c1 [oleuropein]	472 ± 21.7 µM
OCCc1ccc(O)cc1 [tyrosol]	1110 ± 55.6 µM

Tested on: DPP-IV
Test: not given
Conditions: cited from earlier work

Structure (SMILES)	mode of DPP-IV inhibition	activity against DPP-IV (in words)
O=c1cc(-c2ccc(O)cc2)oc2cc(O)cc(O)c12 [apigenin]	noncompetitive	–
O.Oc1cc(O)c2c(c1)O[C@H](c1ccc(O)c(O)c1)[C@@H](O)C2 [catechin]	–	totally inactive
O=C(/C=C/c1ccc(O)c(O)c1)O[C@@H]1C[C@](O)(C(=O)O)C[C@@H](O)[C@H]1O [chlorogenic acid]	–	totally inactive
COc1cc(/C=C/C(=O)CC(=O)/C=C/c2ccc(O)c(OC)c2)ccc1O [curcumin]	competitive	more active than resveratrol
Oc1cc(O)c2c(c1)O[C@H](c1ccc(O)c(O)c1)[C@H](O)C2 [epicatechin]	–	totally inactive
O=c1c(-c2ccc(O)cc2)coc2cc(O[C@@H]3O[C@H](CO)[C@@H](O)[C@H](O)[C@H]3O)cc(O)c12 [genistin]	–	totally inactive
COc1ccc([C@@H]2CC(=O)c3c(O)cc(O[C@@H]4O[C@H](CO[C@@H]5O[C@@H](C)[C@H](O)[C@@H](O)[C@H]5O)[C@@H](O)[C@H](O)[C@H]4O)cc3O2)cc1O [hesperidin]	–	totally inactive
CC1(C)O[C@H]2CC(=O)OC[C@]23[C@H]2CC[C@@]4(C)[C@H](c5ccoc5)OC(=O)[C@H]5O[C@]54[C@]2(C)C(=O)C[C@@H]13 [limonin]	–	totally inactive
O=c1cc(-c2ccc(O)c(O)c2)oc2cc(O)cc(O)c12 [luteolin]	noncompetitive	–
C[C@@H]1O[C@@H](O[C@H]2[C@H](Oc3cc(O)c4c(c3)O[C@H](c3ccc(O)cc3)CC4=O)O[C@H](CO)[C@@H](O)[C@@H]2O)[C@H](O)[C@H](O)[C@H]1O [naringin]	–	totally inactive
C[C@@H]1O[C@@H](OC[C@H]2O[C@@H](Oc3cc(O)c4c(c3)O[C@H](c3ccc(O)cc3)CC4=O)[C@H](O)[C@@H](O)[C@@H]2O)[C@H](O)[C@H](O)[C@H]1O [narirutin]	–	totally inactive
COc1ccc([C@@H]2CC(=O)c3c(O)cc(O[C@@H]4O[C@H](CO)[C@@H](O)[C@H](O)[C@H]4O[C@@H]4O[C@@H](C)[C@H](O)[C@@H](O)[C@H]4O)cc3O2)cc1O [neohesperidin]	–	totally inactive
O=C(O)c1ccc(O)c(O)c1 [protocatechuic acid]	–	totally inactive
Oc1ccc(/C=C/c2cc(O)cc(O)c2)cc1 [resveratrol]	competitive	–
C[C@@H]1O[C@@H](OC[C@H]2O[C@@H](Oc3c(-c4ccc(O)c(O)c4)oc4cc(O)cc(O)c4c3=O)[C@H](O)[C@@H](O)[C@@H]2O)[C@H](O)[C@H](O)[C@H]1O [rutin]	–	totally inactive

Same assay, conditions: read-out: IC50, in vitro DPP-IV activity; cited from earlier work

Structure (SMILES)	IC50
C[C@@H]1O[C@@H](OC[C@H]2O[C@@H](Oc3cc(O)c4c(c3)O[C@H](c3ccc(O)c(O)c3)CC4=O)[C@H](O)[C@@H](O)[C@@H]2O)[C@H](O)[C@H](O)[C@H]1O [eriocitrin]	10.36 ± 0.09 µM
Oc1ccc(/C=C/c2cc(O)cc(O)c2)cc1 [resveratrol]	0.0006 ± 0.0004 µM
